Results on 2 substances are retold here after patent publication EP0331184A2, “Peptide equivalents of non-peptides and methods of design therefor” (THE BOARD OF TRUSTEES OF THE UNIVERSITY OF ALABAMA FOR ITS …, priority 1988, dated 1989).

The subject of this test is dog kidney Na⁺K⁺ATPase. Description: ³H-ouabain radioreceptor assay. In kind it is binding. The settings on record: 10⁻⁴M concentrations. As for the experimental part: The linked-enzyme, spectrophotometric assay measuring hydrolysis of ATP was performed as described in Example 1. The ³H-ouabain radioreceptor assay was performed in 0.5 ml of 50 mM Tris HCl (pH 7.4) containing 0.5 mM EDTA, 4 mM MgSO₄, 80 mM NaCl, 5mM ATP, 7.5 ug of dog kidney Na⁺K⁺ATPase (Sigma), 7.8 nCi of [21, 22-³H]-ouabain (specific activity = 15.6 Ci/mmol; Amersham), and 0.1% gelatin. Test samples were incubated for 2 hr at 37°C; ATP and ³H-ouabain were absent during the first hour but present during the second hour. The glycopeptide 1-39 used in these experiments was isolated to homogeneity as described in Fig. 6; eOLP refers to the partially purified, endogenous ouabain-like substance described in the text, and its amounts are expressed as ul of acetonitrile/TFA. Samples of these preparations, both in acetonitrile/0.1% trifluoroacetic acid, were evaporated under a stream of nitrogen gas and redissolved in 0.1% gelatin in preparation for assay. ³H-ouabain bound to Na⁺K⁺ATPase was recovered on Whatman GF/F glass microfiber filters using vacuum filtration. The filters had been soaked in 0.3% aqueous polyethylenimine for 2 hr immediately before filtration. The filters were added to scintillation fluid in vials and counted in a liquid scintillation spectrometer. […]

For the substance lysine vasopressin, the “displacing activity in the ³H-ouabain radioreceptor assay” value was “no displacing activity”.
Take oxytocin: the “displacing activity in the ³H-ouabain radioreceptor assay” value was “no displacing activity”.
